Reference: ChEMBL document CHEMBL1159250, “A novel phorbol ester from Excoecaria agallocha” (J Nat Prod, 1995)

Key:
[1] = molecular target: Protein kinase C (PKC); experiment: Displacement of [3H]PDBu from rat brain membrane PKC; type: tissue-based
[2] = tested on: H9; experiment: Cytotoxicity in human H9 cells upto 2 uM; type: cell-based
[3] = tested on: Human immunodeficiency virus 1; experiment: Inhibition of HIV1 replication in human H9 cells assessed as inhibition of supernatant reverse transcriptase and p24 level; type: functional, organism-based; settings: Human immunodeficiency virus 1, H9

SMILES: CCCC/C=C/C=C/CC(=O)O[C@@]12C[C@H](C)[C@@]3(O)[C@@H](C=C(CO)C[C@]4(O)C(=O)C(C)=C[C@@H]34)[C@@H]1C2(C)C
- IC50 [1]: 17 nM
- Activity [2]: Non-toxic
- IC50 [3]: 6 nM
